Measured values reported in ChEMBL document CHEMBL1147205 (Eur J Med Chem, 2007).
In brackets after ≈: the same amount, converted by molar mass. Activity calls are given as the source filed them. The rule behind the calls is not given here.

Experiments:
[1] = physchem; settings: phosphate buffer, pH 7.5
Description: Lipophilicity in phosphate buffer at pH 7.5

[2] = physchem; settings: phosphate buffer, pH 7.4
Description: Solubility in phosphate buffer at pH 7.4

[3] = artificial membrane
Description: Affinity to immobilized artificial membrane by reversed phase HPLC

[4] = physchem; settings: phosphate buffer, pH 5
Description: Solubility in phosphate buffer at pH 5.0

[5] = system: Macrophage; test: Effect on rabbit alveolar macrophages assessed as reduction in viability at 50 uM by trypan blue exclusion; assay type: functional, cell-based; settings: Oryctolagus cuniculus
[6] = system: Macrophage; test: Inhibition of SP-A degradation in rabbit alveolar macrophages; assay type: functional, cell-based; settings: Oryctolagus cuniculus

Row | Compound | logD [1] | solubility [2] | logD IAM [3] | solubility [4] | Activity [5] | Activity [6]
1 | CCCCc1oc2ccccc2c1C(=O)c1cc(I)c(OCCN(C(C)C)C(C)C)c(I)c1 | 8.74 | 14 µM (≈ 9.43 µg/mL) | 4.58 | 230 µM (≈ 155 µg/mL) |  | 
2 | CCCCc1oc2ccccc2c1C(=O)c1cc(I)c(OCCN2CCOCC2)c(I)c1 | 6.15 | 15 µM (≈ 9.89 µg/mL) | 3.36 | 170 µM (≈ 112 µg/mL) |  | 
3 | CCCCc1oc2ccccc2c1C(=O)c1cc(I)c(OCCN2CCCC2)c(I)c1 | 7.82 | 49 µM (≈ 31.5 µg/mL) | 4.23 | 1860 µM (≈ 1200 µg/mL) | Active | Active
4 | CCCCc1oc2ccccc2c1C(=O)c1cc(I)c(OCCN2CCCCC2)c(I)c1 | 8.04 | 23 µM (≈ 15.1 µg/mL) | 4.28 | 2220 µM (≈ 1460 µg/mL) |  | Active

Further lines, with some results ahead:

Row | logD [1] | solubility [2] | logD IAM [3] | solubility [4] | Compound | Activity [5] | Activity [6]
5 | 7.98 | 212 µM (≈ 134 µg/mL) | 3.56 | 1040 µM (≈ 657 µg/mL) | CCCCc1oc2ccccc2c1C(=O)c1cc(I)c(OCCCN(C)C)c(I)c1 | Active | Active
6 | 7.15 | 51 µM (≈ 31.5 µg/mL) | 3.64 | 2210 µM (≈ 1360 µg/mL) | CCCCc1oc2ccccc2c1C(=O)c1cc(I)c(OCCN(C)C)c(I)c1 |  | 
